Reference: paper PMC12498190, “A Photocaged N‐Phosphonopiperidinone as a Selective Photo‐Cleavable DPP8/9 Inhibitor” (Chembiochem, 2025)

Tests used:
[1] = format: physicochemical; conditions: longer irradiation times, green LED 520-530 nm, up to 5 min
Description: With 5 in our hands, we then started our probe characterization by determining the velocity of the photorelease reaction, i.e., the light‐triggered cleavage of the photocage, thereby delivering again the “active” inhibitor 1. To this end, a 50 µM solution of 5 in 10% acetonitrile in MS‐grade water was irradiated with a green LED lamp (λ = 520‐530 nm, 30 W) for the indicated time periods, and the release of the active inhibitor 1 was quantified via liquid chromatography‐mass spectrometry (LC–MS) analysis (Figure 1A). […] After 3 min, cleavage was quantitative (>99%). Importantly, the only products observed were the desired ‘free’ inhibitor 1 and the cleaved photogroup, indicating a clean activation to 1.
Figure 1 DPP inhibition by photo‐cleavable inhibitors. A) LC‐MS analysis of the photocleavage reaction of 5 after irradiation with green light. 50 µM of compound 5 was irradiated with a green LED lamp (λ = 520‐530 nm, 30 W) for up to 5 min, and the resulting reaction mixture was analyzed via LC‐MS. […] B) Resulting quantification of the photolysis of 5 based on peak areas depicted in A) (n = 3 technical replicates). […] Enzyme activity was determined by measuring the release of AMC from the substrate GP‐AMC. […]
Compound 5 was dissolved in DMSO. In order to quantify the effect of irradiation time on photocleavage of the BODIPY moiety, 50 µL aliquots of a 50 µM solution of 5 in 10% acetonitrile (ACN; VWR Chemicals, USA) in MS‐grade water (VWR Chemicals, USA) were irradiated for 0–5 min with a green LED lamp (λ = 520–530 nm, 30 W; Eurolite, Germany) at room temperature (RT) and gentle shaking (final DMSO concentration: 0.5%).
Quantification of inhibitor release was then determined via LC‐MS on an LTQ XL linear ion trap mass spectrometer (ITMS; Thermo Fisher Scientific, USA) coupled to a DIONEX UltiMate 3000 system (Thermo Fisher Scientific, USA), operated using Xcalibur software 4.4.16.14. […] Quantification was done using Freestyle v1.6. based on the UV spectra (λ = 254 nm) using the Avalon peak detection algorithm. […]

[2] = Cell viability assay (MTT); format: cell-based, human; conditions: human, HEK293 cells, regardless of irradiation, read-out: Remaining viability
Description: (§1) Figure 2 Competitive ABPP with photo‐cleavable inhibitor 5 in HEK293 cells. A) Schematic overview of a competitive ABPP experiment. A proteome is pre‐incubated with a competitor, followed by a labeling reaction with an activity‐based probe (ABP). In the case of a photocaged inhibitor, the active compound can be released via irradiation. Target proteins of the competitor cannot be bound by the ABP, resulting in an absence of the respective protein band in‐gel analysis. Created in BioRender. Najdzion, M. (2025) https://BioRender.com/84zn8cb B) Gel‐based competitive ABPP experiment in HEK293 cell lysates with the broadband serine hydrolase ABP ≡FP or the DPP8/9‐directed ABP 2 and the photocaged inhibitor 5, at the indicated concentrations, after or without prior irradiation with green light for 5 min. The corresponding pre‐incubation time for 5 was 30 min. C) Corresponding in situ competitive ABPP experiment in HEK293 cell culture, again with 10 µM 2 for 1 h. Labeling was competed by pre‐incubation with 20 µM 5 for 1 h, followed by an activation of the photocaged inhibitor by irradiation for 5 min with a green LED lamp, if applicable. D) Green light treatment has no cytotoxic effect. HEK293 cells were irradiated with a green LED lamp in the presence of 0.5% DMSO for 5 min (‘light’), and cell viability was measured after 24 h. […] Data was normalized to the non‐irradiated control (‘dark’). E) Green light treatment leads to the release of the active DPP8/9 inhibitor. HEK293 cells were incubated with compound 1 or 5 for 24 h. For both compounds, cell viability was measured under ‘dark’ (not irradiated) and ‘light’ (irradiated for 5 min with a green LED lamp after the addition of the inhibitor) conditions. […] Data was normalized to the non‐irradiated DMSO control.
(§2) In order to validate target engagement in living cells and potential cytotoxic effects of green light treatment, we determined cell viability of HEK293 cells after 24 h inhibitor treatment with 5 with or without 5 min green light irradiation, as the application of DPP8/9 inhibitors at high concentrations and thus elimination of any residual DPP8/9 activity results in cytotoxicity.^[ [38], [39] ^– [40] ^] As a control, effects of green light treatment on cell viability were examined in the absence of any inhibitor after 24 h, again with or without 5 min irradiation (Figure 2D). […] Of note, no additional effect of the photocage on cell viability was observed. In summary, our cell viability studies confirm target engagement in live cells exclusively after photorelease, thereby again confirming the suitability of the photocaged DPP8/9 inhibitor 5 as a cell biological tool compound.
(§3) To investigate the cytotoxicity of compounds, 2 × 10^4 HEK293 cells were cultured in DMEM (+/+) on 96‐well flat‐bottom cell culture plates (Sarstedt, Germany) as described above. After 24 h, cells were treated with indicated concentrations of compounds (final DMSO concentration: 0.5%) and, if applicable, irradiated with a green LED lamp (λ = 520−530 nm; Eurolite, Germany) for 5 min. Control cells were treated with DMSO. Cell viability was measured 24 h after compound treatment. To this end, 25 µL Thiazolyl Blue Tetrazolium Bromide (MTT) solution (5 mg mL^−1 MTT (Sigma Aldrich, USA) in PBS (Gibco, USA)) was added to each well directly into the medium. After 3 h of incubation at 37 °C, the medium was removed and formazan crystals were dissolved by adding 150 µL DMSO (1 h, 37 °C, gentle shaking), followed by an absorbance measurement at 570 and 630 nm as a reference using a Tecan Spark 10 M multimode microplate reader (Tecan Group Ltd., Switzerland). Each experiment was performed with five replicates. Relative cell viability was expressed as a percentage relative to the DMSO‐treated control cells.

HEK293 cells = assay: Cell viability assay (MTT); format: cell-based, human; conditions: low micromolar range, 24 h
Description: as §1, §2, §3

DPP9 = DPP9 (Homo sapiens, UniProt Q86TI2); assay: In vitro gel-based competitive ABPP in HEK293 cell lysates, 100 kDa band; set-up: endogenous in cells; host or cells: HEK293 (Cytion, Germany, 300192); conditions: HEK293 lysate; 10 µM probe, 1 h; ca. 100 kDa (DPP9) and 70 kDa (PREP); regardless of irradiation
Chain of DPP9 (Q86TI2 whole entry): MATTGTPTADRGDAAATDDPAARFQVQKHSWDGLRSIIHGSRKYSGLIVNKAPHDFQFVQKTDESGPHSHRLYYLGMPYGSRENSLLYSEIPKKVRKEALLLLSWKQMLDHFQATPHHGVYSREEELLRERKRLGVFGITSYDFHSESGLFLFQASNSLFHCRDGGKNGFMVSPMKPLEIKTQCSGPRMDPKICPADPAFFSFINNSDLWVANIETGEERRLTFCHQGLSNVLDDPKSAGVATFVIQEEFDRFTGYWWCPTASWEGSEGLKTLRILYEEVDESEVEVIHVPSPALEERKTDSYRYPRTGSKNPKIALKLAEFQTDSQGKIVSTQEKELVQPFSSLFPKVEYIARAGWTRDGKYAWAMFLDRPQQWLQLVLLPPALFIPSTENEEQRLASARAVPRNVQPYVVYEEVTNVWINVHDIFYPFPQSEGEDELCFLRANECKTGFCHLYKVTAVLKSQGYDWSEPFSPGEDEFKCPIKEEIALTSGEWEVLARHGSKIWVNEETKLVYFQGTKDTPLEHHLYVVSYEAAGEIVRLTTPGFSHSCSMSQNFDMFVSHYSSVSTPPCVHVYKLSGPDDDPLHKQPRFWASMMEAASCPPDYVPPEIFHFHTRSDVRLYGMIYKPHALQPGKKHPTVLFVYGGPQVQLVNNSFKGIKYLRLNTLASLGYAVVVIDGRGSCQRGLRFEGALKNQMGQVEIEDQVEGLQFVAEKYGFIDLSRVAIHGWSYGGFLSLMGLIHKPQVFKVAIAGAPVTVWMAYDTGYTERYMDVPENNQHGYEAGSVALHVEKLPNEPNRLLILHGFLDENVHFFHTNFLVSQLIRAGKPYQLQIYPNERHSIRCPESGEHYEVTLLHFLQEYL
Description: Therefore, HEK293 cell lysates were pre‐incubated with 10 µM 5 or DMSO vehicle control for 30 min, followed by a labeling reaction with 2 µM of the serine hydrolase‐specific ABP fluorophosphonate‐alkyne (≡FP) or 10 µM 2 (Figure 2B). […] Of note, this band has been previously assigned as DPP9 (DPP8 would migrate in the same range, but is only expressed at low levels in the used cell line and therefore cannot be visualized by this approach).^[ [36] ^, [37] ^] […] Again, this labeling was observed regardless of prior irradiation. Subsequently, the competitive labeling experiment was conducted by pre‐incubation with compound 5, with or without subsequent irradiation.
as §1
For in vitro ABPP, cell lysates were generated from HEK293 cells grown on a 10 cm tissue dish. […] The cell lysates were cleared via centrifugation (30 min, 20,817 × g, 4 °C), and protein concentration was determined with a modified Bradford assay using Roti‐Nanoquant (Carl Roth, Germany). […]

Row | Structure (SMILES) | Photostability under photorelease conditions (in words) [1] | viability at 24 h, 25 µM ([2]; 25 µM) [%] | viability at 24 h, 50 µM ([2]; 50 µM) [%] | Effect on cell viability (in words) (HEK293 cells) | Bands labeled by the probe in ABPP (in words) (DPP9)
1 | CCCCCc1ccc(SCCP(=O)(OCC)N2CCC[C@H](N)C2=O)cc1 (some centres unmarked) [Compound 1] | did not lead to further side products | ~65 | ~15 | did not significantly affect cell viability | 
2 | C#CCCCP(=O)(OCC)N1CCC[C@H](N)C1=O (some centres unmarked) [Compound 2] |  |  |  |  | two bands
